Data as given in publication PMC4580393 (British Journal of Cancer, 2015).

Experiments:
[1] = following intravenous administration; no reference given; cited from earlier work
KRAS mt mCRC = assay: Best overall response by RECIST v1.0, FOLFIRI plus pimasertib second-line; format: in vivo, human; conditions: 45 or 60 mg per day plus FOLFIRI
[2] = Single-dose plasma pharmacokinetics of pimasertib with and without FOLFIRI; format: in vivo, human; conditions: for Ratio of AUC(0–∞) test/reference / Ratio of Cmax test/reference / CL/f: median; for Ratio of AUC(0–∞) test/reference / Ratio of Cmax test/reference: day 1 with FOLFIRI / day 8 alone
human liver microsomes = conditions: in vitro, ref Merck, data on file; cited from earlier work
[3] = Treatment-emergent adverse events, FOLFIRI plus pimasertib; format: in vivo, human
[4] = Dose-limiting toxicities and MTD of pimasertib combined with FOLFIRI; format: in vivo, human
[5] = ref Awada et al, 2012, cited from earlier work
[6] = Plasma pharmacokinetics of irinotecan and SN-38 with and without pimasertib; conditions: for Ratio of AUC(0–∞) test/reference / Ratio of Cmax test/reference: day 1 with pimasertib / day 15 without pimasertib
[7] = 45 mg per day pimasertib cohort
[8] = median, irinotecan 180 mg m^−2 infusion, day 15, without pimasertib (reference)
[9] = median, irinotecan 180 mg m^−2 infusion, day 1, with pimasertib (test)

In the case of `O=c1[nH]cc(F)c(=O)[nH]1` [5-FU, 5-fluorouracil], the “mean apparent terminal half-life” value [1] is given as roughly 0.267 h.

For `O=C(NC[C@H](O)CO)c1ccncc1Nc1ccc(I)cc1F` [pimasertib, Pimasertib], the “stable disease maintained for at least 12 weeks, share of the nine SD patients” value (KRAS mt mCRC) was 66.7%, the “partial response as best overall response, patients” value (KRAS mt mCRC; efficacy analysis set n=15) was 13.3% and the “progressive disease as best overall response, patients” value (KRAS mt mCRC; efficacy analysis set n=15) was 20.0%. The “stable disease as best overall response, patients” value (KRAS mt mCRC; efficacy analysis set n=15) was 60.0%, the “reduction of exposure (AUC0–∞) in the presence of FOLFIRI” value ([2]; 45 mg per day cohort) was 8.3% and the “reduction of maximum plasma concentration (Cmax) in the presence of FOLFIRI” value ([2]; 45 mg per day cohort) was 16.3%. For the same compound, the “Ratio of AUC(0–∞) test/reference” value ([2]; 45 mg per day) was 0.917, the “Ratio of Cmax test/reference” value ([2]; 45 mg per day) was 0.837 and the “Ratio of AUC(0–∞) test/reference” value ([2]; 60 mg per day) was 0.825. The “Ratio of Cmax test/reference” value ([2]; 60 mg per day) was 0.751, the CL/f ([2]; single 45 mg dose, day 1, with FOLFIRI (test)) was 38.7 L/h and the CL/f ([2]; single 45 mg dose, day 8, alone (reference)) was 34.2 L/h. The CL/f ([2]; single 60 mg dose, day 1, with FOLFIRI (test)) was 42.1 L/h, the CL/f ([2]; single 60 mg dose, day 8, alone (reference)) was 44.6 L/h and the “effect on 5-FU metabolism” value (human liver microsomes) was “does not alter 5-FU metabolism”. For the same compound, the “Patients with ≥1 pimasertib-related TEAE (by worst grade)” value (“Patients … (by worst grade)” for short) ([3]; 45 mg per day (n=10), grade 1/2) was 5, the “Patients … (by worst grade)” value ([3]; 45 mg per day (n=10), grade 3) was 5 and the “Patients … (by worst grade)” value ([3]; 45 mg per day (n=10), grade 4) was 0. The “incidence of grade ≥3 pimasertib-related TEAEs” value ([3]; 45 mg per day dose) was 50.0%, the “Patients … (by worst grade)” value ([3]; 60 mg per day (n=6), grade 1/2) was 2 and the “Patients … (by worst grade)” value ([3]; 60 mg per day (n=6), grade 3) was 2. The “Patients … (by worst grade)” value ([3]; 60 mg per day (n=6), grade 4) was 2, the “incidence of grade ≥3 pimasertib-related TEAEs” value ([3]; 60 mg per day dose) was 66.7% and the “Patients … (by worst grade)” value ([3]; Overall (n=16), grade 1/2) was 7. For the same compound, the “Patients … (by worst grade)” value ([3]; Overall (n=16), grade 3) was 7, the “Patients … (by worst grade)” value ([3]; Overall (n=16), grade 4) was 2 and the “time to resolution of ocular AEs from day of onset” value ([3]; all events except SRD in two patients) was 3 to 139 days. The “Asthenia, pimasertib-related TEAE, patients” value ([3]; overall n=16) was 37.5%, the “Diarrhoea, pimasertib-related TEAE, patients” value ([3]; overall n=16) was 62.5% and the “Serous retinal detachment (SRD), pimasertib-related TEAE, patients” value ([3]; overall n=16) was 37.5%. The “Skin/rash, pimasertib-related TEAE, patients” value ([3]; overall n=16) was 50%, the “patients with at least one ocular event during trial treatment” value ([3]; overall n=16) was 43.8% and the “patients with skin/rash events” value ([3]; overall n=16) was 56.3%. The “patients who experienced a DLT” value ([4]; DLT analysis set, 15 patients, both dose levels) was “three”, the DLTs ([4]; first three patients, 45 mg per day) was “no DLTs” and the “recommended single-agent dose for phase II trials” value ([5]; administered continuously) was 60 mg twice-daily. The dose-limiting toxicities ([5]; single-agent phase I dose-escalation trial) was “skin rash, acneiform dermatitis, ocular events and stomatitis”.

In the case of `CCc1c2c(nc3ccc(OC(=O)N4CCC(N5CCCCC5)CC4)cc13)-c1cc3c(c(=O)n1C2)COC(=O)[C@]3(O)CC` [Irinotecan, irinotecan, reference compound], the “reduction of Cmax in the presence of pimasertib” value [6, 7] is reported as 2.7%, the “reduction of exposure (AUC0–∞) in the presence of pimasertib” value [6, 7] is reported as 8.9% and the AUC(0-inf) ([6]; human, in vivo, 180 mg m^−2, AUC(0–∞), median, irinotecan 180 mg m^−2 infusion, day 1, with pimasertib (test)) is reported as 10600 ng·h/mL. The Cmax ([6]; human, in vivo, 180 mg m^−2, Cmax, median, irinotecan 180 mg m^−2 infusion, day 15, without pimasertib (reference)) was 2120 ng/mL, the Tmax ([6]; human, in vivo, 180 mg m^−2, Tmax, median, irinotecan 180 mg m^−2 infusion, day 1, with pimasertib (test)) was 1.5 h and the “Ratio of AUC(0–∞) test/reference” value ([6]; median) was 0.911. For the same compound, the “Ratio of Cmax test/reference” value ([6]; median) was 0.973 and the Tmax [6, 8] was 1.54 h.

For `CCc1c2c(nc3ccc(O)cc13)-c1cc3c(c(=O)n1C2)COC(=O)[C@]3(O)CC` [SN-38], the “increase in Cmax with coadministration of pimasertib” value [6, 7] was 11%, the “reduction of exposure (AUC0–∞) in the presence of pimasertib” value [6, 7] was 9% and the “Ratio of AUC(0–∞) test/reference” value ([6]; median) was 0.91. The “Ratio of Cmax test/reference” value ([6]; median) was 1.11, the “AUC(0–t)” value [6, 9] was 150 ng·h/mL and the “AUC(0–∞)” value [6, 9] was 198 ng·h/mL. The Cmax [6, 9] was 20.4 ng/mL, the T1/2 [6, 9] was 13.6 h and the “AUC(0–t)” value [6, 8] was 146 ng·h/mL. The “AUC(0–∞)” value [6, 8] was 206 ng·h/mL, the Cmax [6, 8] was 15.1 ng/mL and the T1/2 [6, 8] was 15.7 h. It also gave a Tmax [6, 8] of 1.6 h.
